Results from patent publication US3963758A, “2-(Benzofuroyl)phenyl acetic acids” (Serdex - Societe d'Etudes, de Recherches, de Diffusion et …, priority 1973, dated 1976).

Tests used:
[1] = Acute toxicity, oral, rats; conditions: rat, in vivo, fasting rats, 14 days observation
Method: (§1) Acute toxicity is determined by oral administration of the test material in fasting mice and rats.
(§2) The compound of Example 1 is homogeneously suspended in a carrier comprising a 3% gum arabic solution.
(§3) The animals are kept under observation during 14 days after the treatment.

[2] = Acute toxicity, oral, mice; conditions: mouse, in vivo, fasting mice, 14 days observation
Method: as §1, §2, §3

[3] = system: phenylbenzoquinone-induced writhing movements; assay: Analgesic activity, Siegmund Test (phenylbenzoquinone writhing); type: in vivo; conditions: mice; for ED50: Mus musculus, ip; for ED50 / Siegmund ED50: test material 1 hour before phenylbenzoquinone i.p.
Method: Siegmund Test (Proc. Soc. Exp. Biol. Med., 1957, 95, 729-31)
Intraperitoneal injection of 0.25 ml of an aqueous-alcoholic 2-phenyl-1,4-benzoquinone solution at a concentration of 0.02% induces in mice a specific syndrome characterized by the stretching of the hind paws and writhing movements of the trunk.
The tests are carried out with homogeneous lots of 20-30 mice having an average weight of 20 g.
The animals are administered the test material at time zero. One hour later, phenylbenzoquinone is administered by the intraperitoneal route. The animals are individually kept under observation during 5 minutes, between the fifth and the tenth minute after phenylbenzoquinone injection.
The present activity of the test material is evaluated by comparing the number of writhing movements of the treated animals with respect to the reference animals.

[4] = system: carrageenin-induced edema; assay: Acute carrageenin-induced edema; type: in vivo; conditions: oral, male rats; for ED50: Rattus norvegicus; for ED50 / Carrageenin-induced edema ED50: 1 hour prior to carrageenin, edema at 3 hours; for Carrageenin-induced edema percent protection: 3 hours; for Carrageenin-induced edema ED50: 180 min
Method: c. Anti-inflammatory activity
1- Acute carrageenin-induced edema (Winster C. A., Risley E. A., Nuss G.W., Proc. Soc. Biol. Med., 1962, 3, 544-7)
Subplantar injection in the paw of rats of 0.05 ml of an aqueous gel containing 1% carrageenin induces a local edema which may be measured by means of an electric mercury plethysmometer.
Determination of the volume of the forepaw prior, and three hours after the carrageenin injection, makes it possible to calculate the percent inflammation.
The treatment is administered orally, one hour prior to carrageenin administration.
The tests are conducted only with homogeneous lots of 10 male rats weighing 180 g ± 10 g.
The resulting edema is evaluated for each animal by means of the ratio: [formula] in which:
Vo of the paw at time 3 hrs Vo = volume of the paw at time zero
The protection noted under the effect of the test material may be evaluated by comparing the percent edema determined in the treated lot with respect to the reference lot.

[5] = system: Turfyl nicotinate (Trafuril)-induced erythema; assay: Turfyl nicotinate (Trafuril)-induced erythema; type: in vivo; conditions: oral, male albino guinea-pigs; for ED50: Cavia porcellus; for ED50 / Trafuril ED50: 1 hour prior to test
Method: 2 - Turfyl nicotinate (Trafuril) -induced erythema
A slight modification of the HAINING method (Br. Jl. Pharmacol., 1963, 21, 104-12) is used:
The test is carried out with homogeneous lots of 6-12 male albino guinea-pigs weighing 300-400 g, after careful depilation of the skin of their backs on the previous day.
On the day of the test, a disk for antibiotic sensitivity determination impregnated with a 5% alcoholic Turfyl nicotinate solution is applied during one minute on the lumbar area.
The effect produced is recorded after five minutes.
The results are rated according to an "all or nothing" scale, according to whether or not an erythema appears at the locus of application of the disk.
The treatment is administered orally one hour prior to the test, under an uniform volume of 1 ml/kg body weight; the test materials are homogeneously suspended with 3% gum arabic.
The reference animals are administered an equal volume of carrier.
The percent erythema obtained in the treated animals is compared with that obtained in the simultaneously tested reference lot.

[6] = system: adjuvant arthritis (Mycobacterium butyricum); assay: Adjuvant arthritis; type: in vivo; conditions: at 20 mg/kg; oral, daily, 14th to 28th day; male rats
Method: According to the works by PEARSON C. M. (J. Chronic. Dis., 1963, 16, 863-74), JONES R. D. and WARD J. R. (Recent progress in hormone research, vol. XIX, 1963, Ac. Press), WARD T. R., JONES R. S. (Arthritis and Rheumatism, 1962, 5, 557-64).
The tests are carried out in male rats weighing 151 g ± 20 g. On day 0, the animals are given intradermally, at the base of the tail, an 0.05 ml injection of a suspension of Mycobacterium butyricum in paraffin oil (12 mg killed microbial bodies/ml). The animals are selected on the 14th day and are distributed into homogeneous lots of 15 animals.
The treatment is administered orally, daily, from the 14th to the 28th day.
The chronic arthritis is evaluated according to two criteria:
Arthritis index, by separate scoring of the injuries (erythema, edema, distortions) of each of the four limbs (according to a scoring scale from 0 to 3; maximum score: 12) in each animal on the 14th day, the 18th day, the 21st day, the 24th day and the 28th day (the scoring is effected blind, by two different experimenters).
Sedimentation rate according to KOWARSKI (pipette held at an angle of 45°; recording time: 30 minutes).
The blood sample is taken by the retro-orbicular route. The determination is effected on the 14th, the 21st and the 28th day. […]

[7] = system: Bradykinine-induced bronchoconstriction; assay: Anti-bradykinine activity (Konzett and Rossler technique); type: in vivo, guinea-pig; conditions: I.V., dosage of 100 γ/kg; bradykinine 20 γ/kg I.V.
Text: c. Anti-bradykinine activity
The antagonistic action of the compound described in Example 1 was studied with respect to a Bradykinine-induced bronchoconstriction in guinea-pig (20 γ/kg I.V.).
The technique used was the conventional technique described by KONZETT and ROSSLER (Arch. Exp. Path. Pharmakol., 195, 71-74) and later by HARICHAUX (C.R. Soc. Biol., 158, 12, 2437-2441).

With `CC(C(=O)O)c1cccc(C(=O)c2cc3ccccc3o2)c1` (racemic) [Example 1, 2-[3-(2-benzofuroyl)-phenyl]-propionic acid] as the compound, how does the LD50 at 336 h [1] read?
Its LD50 at 336 h is 1300 mg/kg.

And the LD50 at 336 h [2]?
Its LD50 at 336 h is 2500 mg/kg.

What about the ED50 [3] of the same compound?
Its ED50 is 0.72 mg/kg.

What about the ED50 [4] of the same compound?
Its ED50 is 9 mg/kg.

And the ED50 [5]?
Its ED50 is 3.6 mg/kg.

And the “Activity in adjuvant arthritis” value [6]?
The value was “active”.

What about the “Inhibition of bradykinine-induced bronchospasm” value [7] of the same compound?
The value was “inhibited”.

With `O=C(O)Cc1ccc(C(=O)c2cc3ccccc3o2)cc1` [Example 2, [4-(2-benzofuroyl)-phenyl]acetic acid] as the compound, how does the Siegmund percent protection ([3]; 50 mg) read?
Its Siegmund percent protection is 28%.

What about the “Carrageenin-induced edema percent protection” value ([4]; 50 mg) of the same compound?
The value was 15%.

For `O=C(O)Cc1cccc(C(=O)c2cc3ccccc3o2)c1` [Example 3, [3-(2-Benzofuroyl)-phenyl]acetic acid], which Siegmund percent protection ([3]; 10 mg) is on record?
The Siegmund percent protection was 32%.

What about the Siegmund percent protection ([3]; 50 mg) of the same compound?
The Siegmund percent protection was 50%.

And the “Carrageenin-induced edema percent protection” value ([4]; 100 mg)?
The value was 10%.

And the Trafuril percent protection ([5]; 100 mg)?
Its Trafuril percent protection is 17%.

With `CC(C(=O)O)c1ccc(C(=O)c2cc3ccccc3o2)cc1` (stereo not shown) [Example 4, 2-[4-(2-Benzofuroyl)-phenyl]propionic acid] as the compound, how does the ED50 [3] read?
Its ED50 is 5 mg/kg.

And the ED50 [4]?
Its ED50 is 170 mg/kg.

What about the ED50 [5] of the same compound?
The ED50 was 115 mg/kg.

Which Siegmund percent protection ([3]; 50 mg) does the source give for `Cc1c(C(=O)c2ccc(CC(=O)O)cc2)oc2ccccc12` [Example 5, 4-[2-(3-Methyl-benzofuroyl)]-phenyl acetic acid] here?
Its Siegmund percent protection is 14%.

What about the “Carrageenin-induced edema percent protection” value ([4]; 100 mg) of the same compound?
Its value is 15%.

What does the source list for `COc1ccc(C(C)C(=O)O)cc1C(=O)c1cc2ccccc2o1` (stereo not shown) [Example 6, 2-[3-(2-benzofuroyl)-4-methoxy-phenyl]propionic acid]?
ED50 [3]: ~15 mg/kg; ED50 [4]: > 20 mg/kg

Which ED50 [3] does the source give for `COc1ccc2oc(C(=O)c3cccc(C(C)C(=O)O)c3)cc2c1` (stereo not shown) [Example 7] here?
Its ED50 is less than 60 mg/kg.

What about the ED50 [4] of the same compound?
The ED50 was less than 20 mg/kg.

What does the source list for `CC(C(=O)O)c1cccc(C(=O)c2cc3ccccc3o2)c1` (stereo not drawn) [Example 9, d-2-[3-(2-Benzofuroyl)-phenyl]propionic acid]?
Siegmund ED50 [3]: < 6 mg/kg; Carrageenin-induced edema ED50 [4]: 8 mg/kg; Trafuril ED50 [5]: 2.3 mg/kg

What does the source list for `CC(C(=O)O)c1cccc(C(=O)c2cc3ccccc3o2)c1` (stereo not drawn) [Example 10, l-2-[3-(2-Benzofuroyl)-phenyl]propionic acid]?
Siegmund ED50 [3]: < 6 mg/kg; Carrageenin-induced edema ED50 [4]: ~11.5 mg/kg; Trafuril ED50 [5]: 8 mg/kg
